Legend:
hERG = hERG (Homo sapiens, UniProt Q12809); experiment: Effects on hERG current (whole-cell clamping); conditions: human, HEK 293 cells that express hERG, pH 7.4, hERG inhibition rate (%) (1 μM), 1 μM; tail peak current; hERG-expressed HEK 293 cells
Description: Dimethylsulfoxide was used as a vehicle and hERG-expressed HEK 293 cells (Cytomyx) were used as test cells. Test cells were once cultured and subdivided and were stored under frozen condition in liquid nitrogen. In the study, thawed and subcultured cells having less than 30 of the passage number were used. Test cells were cultured in a carbon dioxide incubator BNP-110M (Tabai Espec Corp.) at 37±1° C., and 5.0±0.5% of carbon dioxide concentration. The component of culture medium was MEM (Minimum Essential Medium) supplemented with 10 vol % fetal bovine serum (non-activated), 1 mmol/L sodium pyruvate, 0.1 mmol/L non-essential amino acid, 100 U/mL penicillin with 100 μg/mL streptomycin. To select gene-expressing cells, 400 μg/mL G418 Sulphate (Invitrogen) was added to the culture medium. In the dishes for the measurement, the medium which not contain G418 Sulphate (Invitrogen) was used.
As to seeding of cells for measurement, subcultured cells which became confluent were treated with 0.25% trypsin-solution containing 1 mmol/L EDTA (Invitrogen) to remove from the plate, and seeded on sterilized collagen-coated cover glass (Iwaki, AGC Techno Glass Co., LTD). The medium was exchanged appropriately, including the day of measurement.
A perfusion method was applied to the experiment. Test cells were perfused (perfusion speed: approximately 4 mL/min) with an external solution containing specified concentrations of test compounds (component of external solution: 137 mmol/L of sodium chloride, 4 mmol/L of potassium chloride, 10 mmol/L of HEPES, 1.8 mmol/L of calcium chloride, 1 mmol/L of magnesium chloride and 10 mmol/L of glucose; adjusted to pH 7.4±0.1 with sodium hydroxide aqueous solution). […] When effects were observed, the perfusion was continued until the maximum response was observed. […] The data were obtained from one experiment or more and the cells which were incubated in a carbon dioxide incubator after seeding and attached to cover slips were used for the measurement.
A whole-cell clamping method was applied to the measurement. Test cells were perfused (perfusion speed: approximately 4 mL/min) with an external solution (component of external solution: 137 mmol/L of sodium chloride, 4 mmol/L of potassium chloride, 10 mmol/L of HEPES, 1.8 mmol/L of calcium chloride, 1 mmol/L of magnesium chloride and 10 mmol/L of glucose; adjusted to pH 7.4±0.1 with sodium hydroxide aqueous solution). A glass electrode with a resistance of 2 to 6 MΩ, filled with an internal solution (component: 130 mmol/L of potassium chloride, 1 mmol/L of magnesium chloride, 5 mmol/L of EGTA, 10 mmol/L of HEPES and 5 mmol/L of ATP adjusted to pH 7.2±0.1 with sodium hydroxide aqueous solution) was used. After rupturing cell membrane with glass electrode, the cell membrane voltage was held at −80 mV via a patch clamp software (pCLAMP9 [Axon CNS], Molecular Devices) using patch clamp amplifier (EPC8, HEKA). […] Test cells and the cell-attached cover glass were changed every treatment. Temperature of the fluid in a perfusion fluid tank was 24±2° C.
The obtained current was recorded on a computer via a patch clamp amplifier using patch clamp software. An evaluation item was a tail peak current.
A tail peak current was analyzed using analyzing software (Clampfit 9 [Axon CNS], MolecularDevices). Each 2 pulses of before and after perfusion of test compound for each concentration was analyzed, and a peak values of the tail current on the pulses were determined. The inhibition ratio was determined according to the following equation:

[1] = system: IL-17 production of mouse spleen cells stimulated by rm-IL-23; experiment: Production of IL-17 induced when mouse spleen cells were stimulated by recombinant mouse interleukin-23 (rm-IL-23); format: cell-based; conditions: Mus musculus, 72 h, inhibition of IL-17 production, DBA/1J mouse spleen cells, rm-IL-23 1 nmol/L, ELISA
Summary of the method: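 Spleen cells from 6-7 week-old male DBA/1J mice, 2×10^5 cells/well in 10% FCS RPMI1640, cultured 72 h at 37° C with compound (1 to 1,000 nmol/L) plus 1 nmol/L rm-IL-23. IL-17 in supernatant by ELISA; viability by WST-8 absorbance at 450 nm; IC50 by linear regression of inhibition rate.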

Sequence of hERG (Q12809 whole entry): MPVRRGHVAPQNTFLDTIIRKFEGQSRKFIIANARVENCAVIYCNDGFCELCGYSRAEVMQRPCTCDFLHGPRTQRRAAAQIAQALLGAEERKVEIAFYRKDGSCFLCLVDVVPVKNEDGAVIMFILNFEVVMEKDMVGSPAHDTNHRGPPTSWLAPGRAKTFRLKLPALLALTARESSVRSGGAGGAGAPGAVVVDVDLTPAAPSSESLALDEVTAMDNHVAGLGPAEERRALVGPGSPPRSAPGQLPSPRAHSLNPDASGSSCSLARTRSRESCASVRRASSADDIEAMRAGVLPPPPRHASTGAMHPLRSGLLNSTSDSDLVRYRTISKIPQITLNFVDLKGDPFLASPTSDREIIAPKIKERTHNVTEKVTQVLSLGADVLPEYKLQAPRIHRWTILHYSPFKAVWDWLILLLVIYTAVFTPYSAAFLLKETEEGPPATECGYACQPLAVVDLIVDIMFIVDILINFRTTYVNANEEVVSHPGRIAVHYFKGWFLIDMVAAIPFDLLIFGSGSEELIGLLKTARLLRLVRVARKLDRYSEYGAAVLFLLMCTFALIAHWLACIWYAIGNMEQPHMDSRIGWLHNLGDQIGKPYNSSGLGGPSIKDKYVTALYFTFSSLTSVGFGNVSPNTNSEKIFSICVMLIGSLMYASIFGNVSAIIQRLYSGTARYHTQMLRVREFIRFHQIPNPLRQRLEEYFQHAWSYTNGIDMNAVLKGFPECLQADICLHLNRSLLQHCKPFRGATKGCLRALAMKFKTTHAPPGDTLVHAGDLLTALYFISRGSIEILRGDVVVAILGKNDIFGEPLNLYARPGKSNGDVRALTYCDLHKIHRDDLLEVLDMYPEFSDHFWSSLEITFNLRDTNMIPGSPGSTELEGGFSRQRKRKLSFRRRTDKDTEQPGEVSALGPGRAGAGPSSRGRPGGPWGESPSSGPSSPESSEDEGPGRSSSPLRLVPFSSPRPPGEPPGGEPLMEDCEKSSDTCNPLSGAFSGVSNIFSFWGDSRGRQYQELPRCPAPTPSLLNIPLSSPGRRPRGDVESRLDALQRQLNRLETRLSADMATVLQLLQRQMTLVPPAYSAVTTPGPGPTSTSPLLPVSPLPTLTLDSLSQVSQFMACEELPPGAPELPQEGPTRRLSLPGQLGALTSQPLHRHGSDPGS

Row | IC50 [1] [nM] | Compound | inhibition at 1 µM (hERG) [%]
1 | 8.11 | Cc1cc(NC(=O)c2cnn(-c3ccc(C(F)(F)F)cn3)c2C)cnc1C1=CCC(N(C)C(=O)C(C)(C)C)CC1 (stereo not drawn) [Example K28, N-(6-{4-[N-(2,2-Dimethylpropion-1-yl)-N-methylamino]cyclohex-1-en-1-yl}-5-methylpyridin-3-yl)-5-methyl-1-[5-(trifluoromethyl)pyridin-2-yl]-1H-pyrazole-4-carboxamide] | 5.1
2 | 368 | Cc1cc(NC(=O)c2cnn(-c3ccc(C(F)(F)F)cn3)c2C)cnc1C1=CCC(N(C)CCC(C)(C)C)CC1 (stereo not drawn) [Example K30, N-(6-[4-[N-(3,3-Dimethylbutyl)-N-methylamino]cyclohex-1-en-1-yl]-5-methylpyridin-3-yl)-5-methyl-1-[5-(trifluoromethyl)pyridin-2-yl]-1H-pyrazole-4-carboxamide] | 79.6
3 | 4.27 | Cc1cc(NC(=O)c2cnn(-c3ccc(C(F)(F)F)cn3)c2C)cnc1C1=CCC(C(C)(C)O)CC1 (stereo not drawn) [Example K31, N-{6-[4-(1-Hydroxy-1-methylethyl)cyclohex-1-en-1-yl]-5-methylpyridin-3-yl}-5-methyl-1-[5-(trifluoromethyl)pyridin-2-yl]-1H-pyrazole-4-carboxamide] | 15.8
4 | 6.32 | Cc1c(C(=O)Nc2ccc(C3=CCC(C(C)(C)O)CC3)nc2)cnn1-c1ccc(C(F)(F)F)cn1 (stereo not drawn) [Example K32, N-{6-[4-(1-Hydroxyl-methylethyl)cyclohex-1-en-1-yl]pyridin-3-yl}-5-methyl-1-[5-(trifluoromethyl)pyridin-2-yl]-1H-pyrazole-4-carboxamide] | 11.3
5 | 206 | CC[C@]1(O)CC[C@](C#N)(c2ccc(NC(=O)c3cnn(-c4ccc(F)cc4)c3C)cn2)CC1 [Example K33, N-[6-(r-1-Cyano-4-ethyl-c-4-hydroxycyclohexan-1-yl)pyridin-3-yl]-1-(4-fluorophenyl)-5-methyl-1H-pyrazole-4-carboxamide] | 8
6 | 154 | CC[C@]1(O)CC[C@@](C#N)(c2ccc(NC(=O)c3cnn(-c4ccc(C)cc4)c3C)cn2)CC1 [Example K34, N-[6-(r-1-Cyano-4-ethyl-t-4-hydroxycyclohexan-1-yl)pyridin-3-yl]-5-methyl-1-(4-methylphenyl)-1H-pyrazole-4-carboxamide] | 0.5
7 | 124 | CC[C@]1(O)CC[C@](C#N)(c2ccc(NC(=O)c3cnn(-c4ccc(C)cc4)c3C)cn2)CC1 [Example K36, N-[6-(r-1-Cyano-4-ethyl-c-4-hydroxycyclohexan-1-yl)pyridin-3-yl]-5-methyl-1-(4-methylphenyl)-1H-pyrazole-4-carboxamide] | 8.1
8 | 58.1 | Cc1c(C(=O)Nc2cnc(C3=CCC(N4CCOCC4)CC3)c(C#N)c2)cnn1-c1ccc(C(F)(F)F)cn1 (stereo not drawn) [Example K38, N-{5-Cyano-6-[4-(morpholin-4-yl)cyclohex-1-en-1-yl]pyridin-3-yl}-5-methyl-1-[5-(trifluoromethyl)pyridin-2-yl]-1H-pyrazole-4-carboxamide] | 44.1
9 | 161 | Cc1cc(NC(=O)c2cnn(-c3ccc(C(F)(F)F)cn3)c2C)cnc1C1=CCN(C(=O)C(C)(C)C)CC1 [Example K41, N-{6-[1-(2,2-Dimethylpropanoyl)-1,2,3,6-tetrahydropyridin-4-yl]-5-methylpyridin-3-yl}-5-methyl-1-[5-(trifluoromethyl)pyridin-2-yl]-1H-pyrazole-4-carboxamide] | 25.6
10 | 46.2 | Cc1cc(NC(=O)c2cnn(-c3ccc(C(F)(F)F)cn3)c2C)cnc1C1=CCN(S(=O)(=O)C(C)C)CC1 [Example K45, 5-Methyl-N-{5-methyl-6-[1-(propane-2-sulfonyl)-1,2,3,6-tetrahydropyridin-4-yl]pyridin-3-yl}-1-[5-(trifluoromethyl)pyridin-2-yl]-1H-pyrazole-4-carboxamide] | 21.1
11 | 37.3 | Cc1c(C(=O)Nc2ccc(C3(C#N)CCN(S(=O)(=O)C(C)C)CC3)nc2)cnn1-c1ccc(C(F)(F)F)cn1 [Example K51, N-{6-[4-Cyano-1-(propane-2-sulfonyl)piperidin-4-yl]pyridin-3-yl}-5-methyl-1-[5-(trifluoromethyl)pyridin-2-yl]-1H-pyrazole-4-carboxamide] | 43.7
12 | 160 | Cc1cc(NC(=O)c2cnn(-c3ccc(C(F)(F)F)cn3)c2C)cnc1C1=CCN(C(=O)N2CCCC2)CC1 [Example K52, 5-Methyl-N-{5-methyl-1-(pyrrolidin-1-ylcarbonyl)-6-[1,2,3,6-tetrahydropyridin-4-yl]pyridin-3-yl}-1-[5-(trifluoromethyl)pyridin-2-yl]-1H-pyrazole-4-carboxamide] | 31.5
13 | 46.4 | Cc1cc(NC(=O)c2cnn(-c3ccc(C(F)(F)F)cn3)c2C)cnc1C1CCN(S(=O)(=O)C(C)C)CC1 [Example K55, 5-Methyl-N-{5-methyl-6-[1-(propane-2-sulfonyl)piperidin-4-yl]pyridin-3-yl}-1-[5-(trifluoromethyl)pyridin-2-yl]-1H-pyrazole-4-carboxamide] | 29.5
14 | 47.2 | Cc1cc(NC(=O)c2cnn(-c3ccc(C(F)(F)F)cn3)c2C)cnc1C1CCN(C(=O)C(F)(F)F)CC1 [Example K60, 5-Methyl-N-{5-methyl-6-[1-(trifluoroacetyl)piperidin-4-yl]pyridin-3-yl}-1-[5-(trifluoromethyl)pyridin-2-yl]-1H-pyrazole-4-carboxamide] | 22.8
15 | 157 | Cc1c(C(=O)Nc2cnc(C3=CCC(N(C)C(=O)C(C)(C)C)CC3)cn2)cnn1-c1ccc(C(F)(F)F)cn1 (stereo not drawn) [Example K64, N-(5-{4-[N-(2,2-Dimethylpropion-1-yl)-N-methylamino]cyclohex-1-en-1-yl}pyrazin-2-yl)-5-methyl-1-[5-(trifluoromethyl)pyridin-2-yl]-1H-pyrazole-4-carboxamide] | 2.3

From patent US9150555B2, “Amide derivative and use thereof” (Mitsubishi Tanabe Pharma Corporation, priority 2010, dated 2015)
